In the data set the test system is H460 cells. The data set is classed as cell-based, human. The conditions noted are these: confocal. On the procedure:
Fig. 3 Recognition and self-assembly of molecule 1 in cells. a Western blots of XIAP expression in H460 and 293T cells. b Confocal images of H460 cells treated with or without energy-dependent inhibitor (oligomycin A, 20 μM) for 1 h, and followed by washing with PBS and treated with the molecule 1 (50 μM) for 1 h. c Statistical analysis of average fluorescence intensities in the cytoplasm of H460 cells from confocal images. Data are presented as the mean ± s.d. (n = 100). ***p < 0.001, p values were performed with one-way ANOVA followed by post hoc Tukey’s test for the indicated comparison. d Confocal images of time-dependent monitoring of H460 and 293T cells treated with the molecule 1 (50 μM) for 1 h followed by washing with PBS and replacing the medium and a further incubation up to 48 h. e Statistical analysis of average fluorescence intensities in the cytoplasm of H460 and 293T cells from confocal images with a timescale range of 1–48 h. Data are presented as the mean ± s.d. […] Finally, incubate up to 6 h and imaging by confocal microscope. g Schematic diagram illustrates the process of NBD fluorescence illumination. h Confocal images of H460 cells treatment with molecule 1-NBD (50 μM) for 1 h. i TEM images of ultrathin section of H460 cells treated with molecule I-1 (50 μM) and without the molecule I-1 for up to 12 h. […]

Where a SMILES comes first, the peptide text is derived from it. The star is where a group is joined. X1 = CC1(C)C(=CC=C2CCCC(C=CC3=[N+](CCCCCC(=O)O)c4ccccc4C3(C)C)=C2*)N(CCCCCC(=O)O)c2ccccc21

Take `CC[C@H](C)[C@H](NC(=O)[C@@H]1CCCN1C(=O)[C@@H](NC(=O)[C@H](C)N)C(C)C)C(=O)N[C@@H](C)C(=O)N[C@@H](CCC(N)=O)C(=O)N[C@@H](CCCCN)C(=O)N[C@@H](CC(=O)O)C(=O)N[C@@H](CCC(=O)O)C(=O)N[C@H](C(=O)N[C@@H](CC(=O)O)C(=O)N[C@@H](CCCCN)C(=O)N[C@@H](CC(C)C)C(=O)N[C@H](C(=O)N[C@@H](Cc1ccccc1)C(=O)N[C@@H](Cc1ccccc1)C(=O)N[C@@H](C)C(=O)N[C@@H](CCC(=O)O)C(=O)N[C@@H](CSC1=C(C=CC2=[N+](CCCCCC(=O)O)c3ccccc3C2(C)C)CCCC1=CC=C1N(CCCCCC(=O)O)c2ccccc2C1(C)C)C(=O)NCC(=O)O)C(C)C)C(C)C` [molecule 1] (H-AVPIAQKDEVDKLVFFAEC(X1)G-OH): the “uptake pathway into cells” value (H460, filipin III 5 μg/ml, chlorpromazine 10 μg/ml, amiloride 10 μM, 1 h, 50 μM 2 h, 37 °C) is “caveolin-mediated endocytic pathway”. Moreover, for the setting “H460, oligomycin A 20 μM 1 h, then 50 μM 1 h, n = 100”, the “internalization into cells, energy dependence” value is given as “energy-dependent”.

These data come from PMC6813295, “A tumour-selective cascade activatable self-detained system for drug delivery and cancer imaging” (Nature Communications, 2019).
